Experimental findings from patent publication US20140155410A1 (GlaxoSmithKline LLC, priority 2008, published 2014) are described below.

The target of one test is T1, Full length Human FAK (Flag-His-TEV-FAK1) (Homo sapiens, UniProt Q05397).
T1 construct: Full length Human FAK was expressed using baculovirus in Sf9 cells; made in house; host or cells: baculovirus in Sf9 cells
T1 sequence (Q05397 whole entry): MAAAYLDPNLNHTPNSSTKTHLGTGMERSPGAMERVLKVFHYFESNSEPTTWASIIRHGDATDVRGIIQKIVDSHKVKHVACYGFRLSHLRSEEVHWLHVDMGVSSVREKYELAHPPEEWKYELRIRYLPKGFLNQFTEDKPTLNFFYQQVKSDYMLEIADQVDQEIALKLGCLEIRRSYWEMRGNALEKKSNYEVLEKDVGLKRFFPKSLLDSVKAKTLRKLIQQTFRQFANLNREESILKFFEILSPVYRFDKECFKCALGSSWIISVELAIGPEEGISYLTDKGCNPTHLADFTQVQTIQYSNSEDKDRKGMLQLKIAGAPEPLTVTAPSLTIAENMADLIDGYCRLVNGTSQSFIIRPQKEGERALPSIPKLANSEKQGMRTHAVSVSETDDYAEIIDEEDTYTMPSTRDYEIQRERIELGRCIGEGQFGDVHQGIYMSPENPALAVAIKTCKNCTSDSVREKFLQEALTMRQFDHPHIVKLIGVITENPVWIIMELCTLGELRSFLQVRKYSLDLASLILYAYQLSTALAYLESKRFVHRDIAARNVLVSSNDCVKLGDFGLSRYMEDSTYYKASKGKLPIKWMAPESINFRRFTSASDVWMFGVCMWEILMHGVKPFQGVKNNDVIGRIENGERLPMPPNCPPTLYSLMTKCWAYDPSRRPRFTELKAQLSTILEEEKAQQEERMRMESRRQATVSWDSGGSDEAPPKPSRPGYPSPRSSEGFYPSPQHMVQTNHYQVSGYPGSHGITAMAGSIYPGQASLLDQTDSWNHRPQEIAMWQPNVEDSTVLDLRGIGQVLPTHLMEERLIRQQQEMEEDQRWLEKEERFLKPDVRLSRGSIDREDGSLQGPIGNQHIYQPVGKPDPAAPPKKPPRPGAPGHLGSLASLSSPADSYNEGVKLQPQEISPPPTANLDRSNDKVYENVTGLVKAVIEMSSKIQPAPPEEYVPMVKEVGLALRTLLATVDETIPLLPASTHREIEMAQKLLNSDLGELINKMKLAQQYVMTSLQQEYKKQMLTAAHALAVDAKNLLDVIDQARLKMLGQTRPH
Kind of test: Biochemical assay for FAK activity, Assay 2: LANCE Ultra ULight peptide phosphorylation, 665 nm/615 nm ratio. As to conditions: Flag-His-TEV-FAK1, 10 μM ATP, 30 min pre-incubation. How it is done:
Flag-His-TEV-FAK1 was prepared in-house. Full length Human FAK was expressed using baculovirus in Sf9 cells with N-terminal FLAG-6×His tags followed by a TEV cleavage site (FLAG-6×His-TEV-huFAK). […] To measure inhibitors of FAK, compounds were first prepared as a 100× stock in 100% DMSO. […] After incubating for 120 minutes at room temperature, the reaction is quenched by adding 5 uL of 20 mM EDTA and 5nMEu-Anti-pTyr antibody in 1× LANCE detection buffer.
Background: Time-resolved FRET reads energy transfer from a long-lived donor to a nearby acceptor.
`CNC(=O)c1cccc(F)c1Nc1cc(Nc2cc(C)nn2C)ncc1Cl` [Example 75, 2-({5-Chloro-2-[(1,3-dimethyl-1H-pyrazol-5-yl)amino]-4-pyridinyl}amino)-3-fluoro-N-methylbenzamide]: the “Assay 2 FAK H 31284A TRF PXC50” value amounted to 8.3.

The same test, now with this note: Flag-His-TEV-FAK1, 10 μM ATP, 30 min pre-incubation; read-out: Assay 2 FAK H 31284A TRF PXC50 (converted).
`CCn1nc(C)cc1Nc1cc(Nc2c(F)cccc2C(=O)NC)c(C(F)(F)F)cn1` [Example 77, 2-{[2-[(1-Ethyl-3-methyl-1H-pyrazol-5-yl)amino]-5-(trifluoromethyl)-4-pyridinyl]amino}-3-fluoro-N-methylbenzamide]: the IC50 was 1 nM. Still for that read-out and setting: to `CONC(=O)c1cccc(F)c1Nc1cc(Nc2cc(C)nn2C(C)C)ncc1Cl` [Example 72, 2-[(5-Chloro-2-{[3-methyl-1-(1-methylethyl)-1H-pyrazol-5-yl]amino}-4-pyridinyl)amino]-3-fluoro-N-(methyloxy)benzamide] belongs 2.51 nM; to `CNC(=O)c1ccc(F)cc1Nc1cc(Nc2cc(C)nn2C)ncc1Cl` [Example 87, 2-({5-Chloro-2-[(1,3-dimethyl-1H-pyrazol-5-yl)amino]-4-pyridinyl}amino)-4-fluoro-N-methylbenzamide], 2.51 nM. Same read-out and setting: under `CCONC(=O)c1ccccc1Nc1cc(Nc2cc(C)nn2CC)ncc1Cl` [Example 64, 2-({5-Chloro-2-[(1-ethyl-3-methyl-1H-pyrazol-5-yl)amino]-4-pyridinyl}amino)-N-(ethyloxy)benzamide] stands 79.4 nM.

`CCn1nc(CN(C)C)cc1Nc1cc(Nc2c(F)cccc2C(=O)NOC)c(Cl)cn1` [Example 95e, 2-{[5-Chloro-2-({3-[(dimethylamino)methyl]-1-ethyl-1H-pyrazol-5-yl}amino)-4-pyridinyl]amino}-3-fluoro-N-(methyloxy)benzamide]: the IC50 was 158 nM. Still for that read-out and setting: to `CCn1nc(CCN2CCCC2)cc1Nc1cc(Nc2ccccc2C(=O)NC)c(Cl)cn1` [Example 46, 2-{[5-Chloro-2-({1-ethyl-3-[2-(1-pyrrolidinyl)ethyl]-1H-pyrazol-5-yl}amino)-4-pyridinyl]amino}-N-methylbenzamide] belongs 12.6 nM; to `CNC(=O)c1cccc(F)c1Nc1cc(Nc2cnn(C)c2C)ncc1Cl` [Example 76, 2-({5-Chloro-2-[(1,5-dimethyl-1H-pyrazol-4-yl)amino]-4-pyridinyl}amino)-3-fluoro-N-methylbenzamide], 12.6 nM. Still for that read-out and setting: to `CONC(=O)c1ccccc1Nc1cc(Nc2c(C)cnn2CC(C)C)ncc1Cl` [Example 51, 2-[(5-Chloro-2-{[4-methyl-1-(2-methylpropyl)-1H-pyrazol-5-yl]amino}-4-pyridinyl)amino]-N-(methyloxy)benzamide] belongs 20 nM. Turning to `CCn1nc(CCO)cc1Nc1cc(Nc2c(F)cccc2C(=O)NC)c(Cl)cn1` [Example 90, 2-[(5-Chloro-2-{[1-ethyl-3-(2-hydroxyethyl)-1H-pyrazol-5-yl]amino}-4-pyridinyl)amino]-3-fluoro-N-methylbenzamide], the IC50 was 10 nM. The same measure, in the same setting: to `CNC(=O)c1cc(F)ccc1Nc1cc(Nc2cc(C)nn2C)ncc1Cl` [Example 83, 2-({5-Chloro-2-[(1,3-dimethyl-1H-pyrazol-5-yl)amino]-4-pyridinyl}amino)-5-fluoro-N-methylbenzamide] belongs 12.6 nM; to `CONC(=O)c1ccccc1Nc1cc(Nc2cc(CO)nn2C(C)C)ncc1Cl` [Example 52, 2-[(5-Chloro-2-{[3-(hydroxymethyl)-1-(1-methylethyl)-1H-pyrazol-5-yl]amino}-4-pyridinyl)amino]-N-(methyloxy)benzamide], 6.31 nM. Turning to `CCn1nc(C)cc1Nc1cc(Nc2ccccc2C(=O)N(C)O)c(Cl)cn1` [Example 63, 2-({5-Chloro-2-[(1-ethyl-3-methyl-1H-pyrazol-5-yl)amino]-4-pyridinyl}amino)-N-hydroxy-N-methylbenzamide], the IC50 was 50.1 nM.

For `CNC(=O)c1ccc(F)cc1Nc1cc(Nc2cc(C)nn2C(C)C)ncc1Cl` [Example 86, 2-[(5-Chloro-2-{[3-methyl-1-(1-methylethyl)-1H-pyrazol-5-yl]amino}-4-pyridinyl)amino]-4-fluoro-N-methylbenzamide], the IC50 was 1.58 nM. With `CONC(=O)c1cccc(F)c1Nc1cc(Nc2cnn(C)c2C)ncc1Cl` [Example 95f, 2-({5-Chloro-2-[(1,5-dimethyl-1H-pyrazol-4-yl)amino]-4-pyridinyl}amino)-3-fluoro-N-(methyloxy)benzamide], the IC50 was 2 nM. As to `CNC(=O)c1ccccc1Nc1cc(Nc2cc(C)nn2C)ncc1C1CC1` [Example 53, 2-[5-Cyclopropyl-2-(2,5-dimethyl-2H-pyrazol-3-ylamino)-pyridin-4-ylamino]-N-methyl-benzamide], the IC50 was 39.8 nM. On to `CNC(=O)c1ccccc1Nc1cc(Nc2cc(C)nn2C)ncc1C#N` [Example 65, 2-({5-Cyano-2-[(1,3-dimethyl-1H-pyrazol-5-yl)amino]-4-pyridinyl}amino)-N-methylbenzamide], for which the IC50 is 15.8 nM. On to `CNC(=O)c1cccc(F)c1Nc1cc(Nc2cc(CO)nn2C)ncc1C(F)(F)F` [Example 80, 3-Fluoro-2-{[2-{[3-(hydroxymethyl)-1-methyl-1H-pyrazol-5-yl]amino}-5-(trifluoromethyl)-4-pyridinyl]amino}-N-methylbenzamide], for which the IC50 was 12.6 nM.

Take `CNC(=O)c1cc(F)ccc1Nc1cc(Nc2cc(C)nn2C(C)C)ncc1Cl` [Example 85, 2-[(5-Chloro-2-{[3-methyl-1-(1-methylethyl)-1H-pyrazol-5-yl]amino}-4-pyridinyl)amino]-5-fluoro-N-methylbenzamide]: the IC50 is 63.1 nM. The same measure, in the same setting: to `CCn1nc(C)cc1Nc1cc(Nc2cc(F)ccc2C(=O)NC)c(Cl)cn1` [Example 88, 2-({5-Chloro-2-[(1-ethyl-3-methyl-1H-pyrazol-5-yl)amino]-4-pyridinyl}amino)-4-fluoro-N-methylbenzamide] belongs 2.51 nM; to `CNC(=O)c1cccc(F)c1Nc1cc(Nc2cc(CCO)nn2C)ncc1Cl` [Example 89, 2-[(5-Chloro-2-{[3-(2-hydroxyethyl)-1-methyl-1H-pyrazol-5-yl]amino}-4-pyridinyl)amino]-3-fluoro-N-methylbenzamide], 10 nM.

With `CNC(=O)c1cccc(F)c1Nc1cc(Nc2cc(C)nn2C)ncc1C(F)(F)F` [Example 78, 2-{[2-[(1,3-Dimethyl-1H-pyrazol-5-yl)amino]-5-(trifluoromethyl)-4-pyridinyl]amino}-3-fluoro-N-methylbenzamide], the IC50 is 1.58 nM. Same read-out and setting: to `CCn1nc(CCO)cc1Nc1cc(Nc2c(F)cccc2C(=O)NC)c(C(F)(F)F)cn1` [Example 81, 2-{[2-{[1-Ethyl-3-(2-hydroxyethyl)-1H-pyrazol-5-yl]amino}-5-(trifluoromethyl)-4-pyridinyl]amino}-3-fluoro-N-methylbenzamide] belongs 2 nM; to `CNC(=O)c1ccccc1Nc1cc(Nc2cc(C)nn2C)ncc1C(C)C` [Example 58, 2-[2-(2,5-Dimethyl-2H-pyrazol-3-ylamino)-5-isopropyl-pyridin-4-ylamino]-N-methyl-benzamide], 50.1 nM; to `CCn1nc(CO)cc1Nc1cc(Nc2c(F)cccc2C(=O)NOC)c(Cl)cn1` [Example 95c, 2-[(5-Chloro-2-{[1-ethyl-3-(hydroxymethyl) 1H-pyrazol-5-yl]amino}-4-pyridinyl)amino]-3-fluoro-N-(methyloxy)benzamide], 12.6 nM.
